Measured values taken from patent US10745416B2, “Macrocyclic compounds for treating disease” (Turning Point Therapeutics, Inc., priority 2017, dated 2020).

Columns and labels:
Assay in all cases: Cell proliferation assay (CellTiter-Glo, 72 hours)
BaF3 EML4-ALK = target: T1, BaF3 EML4-ALK (Homo sapiens, UniProt Q9UM73); format: cell-based; conditions: anti-cell proliferation
T1 construct: The EML4-ALK gene (variant 1) was synthesized at GenScript and cloned into pCDH-CMV-MCS-EF1-Puro plasmid (System Biosciences, Inc); fused on or other part: Q9HC35 (Echinoderm microtubule-associated protein-like 4)
T1 sequence (Q9UM73 whole entry, change not shown, the tested form may be a part): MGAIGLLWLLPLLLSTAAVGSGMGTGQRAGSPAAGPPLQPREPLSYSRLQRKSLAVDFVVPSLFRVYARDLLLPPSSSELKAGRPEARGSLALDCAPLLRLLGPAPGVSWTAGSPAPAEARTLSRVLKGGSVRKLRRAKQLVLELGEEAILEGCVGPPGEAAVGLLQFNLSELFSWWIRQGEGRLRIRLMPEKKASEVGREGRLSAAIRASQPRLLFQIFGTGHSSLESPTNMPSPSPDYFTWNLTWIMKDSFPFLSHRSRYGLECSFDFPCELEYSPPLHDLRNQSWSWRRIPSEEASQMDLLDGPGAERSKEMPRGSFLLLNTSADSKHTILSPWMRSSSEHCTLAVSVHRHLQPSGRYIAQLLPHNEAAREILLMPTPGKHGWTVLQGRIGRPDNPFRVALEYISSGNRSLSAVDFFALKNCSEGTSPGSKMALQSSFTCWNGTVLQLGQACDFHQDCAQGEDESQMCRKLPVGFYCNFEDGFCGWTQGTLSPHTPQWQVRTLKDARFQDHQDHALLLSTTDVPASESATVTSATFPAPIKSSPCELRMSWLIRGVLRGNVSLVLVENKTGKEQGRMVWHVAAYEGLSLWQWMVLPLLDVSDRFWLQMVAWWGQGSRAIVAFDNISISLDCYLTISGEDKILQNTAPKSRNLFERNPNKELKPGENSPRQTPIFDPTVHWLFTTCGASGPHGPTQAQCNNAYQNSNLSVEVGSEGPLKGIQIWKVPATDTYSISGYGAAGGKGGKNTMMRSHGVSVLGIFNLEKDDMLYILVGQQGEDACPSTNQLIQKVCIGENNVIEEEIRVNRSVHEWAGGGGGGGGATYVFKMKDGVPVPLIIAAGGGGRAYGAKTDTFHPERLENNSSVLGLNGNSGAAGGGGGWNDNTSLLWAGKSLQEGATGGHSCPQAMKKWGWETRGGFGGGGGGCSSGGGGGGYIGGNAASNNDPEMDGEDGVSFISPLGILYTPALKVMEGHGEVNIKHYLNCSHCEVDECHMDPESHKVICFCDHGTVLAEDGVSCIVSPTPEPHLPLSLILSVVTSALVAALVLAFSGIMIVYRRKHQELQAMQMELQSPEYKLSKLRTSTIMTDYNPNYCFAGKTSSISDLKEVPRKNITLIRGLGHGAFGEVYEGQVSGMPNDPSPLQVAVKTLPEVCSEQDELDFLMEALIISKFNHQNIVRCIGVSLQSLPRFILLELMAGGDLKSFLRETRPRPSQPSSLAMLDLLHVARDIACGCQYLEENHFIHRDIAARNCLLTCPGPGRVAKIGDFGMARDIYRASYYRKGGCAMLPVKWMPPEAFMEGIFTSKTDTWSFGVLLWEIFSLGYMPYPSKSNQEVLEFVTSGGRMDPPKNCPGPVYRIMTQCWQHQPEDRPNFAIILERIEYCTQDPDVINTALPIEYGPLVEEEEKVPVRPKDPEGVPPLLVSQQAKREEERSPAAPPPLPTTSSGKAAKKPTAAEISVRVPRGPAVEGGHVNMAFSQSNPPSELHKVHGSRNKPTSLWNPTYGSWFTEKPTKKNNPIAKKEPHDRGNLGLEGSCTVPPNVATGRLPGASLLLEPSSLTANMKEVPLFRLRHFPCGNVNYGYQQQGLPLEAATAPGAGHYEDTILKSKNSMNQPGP
Experimental: The EML4-ALK gene (variant 1) was synthesized at GenScript and cloned into pCDH-CMV-MCS-EF1-Puro plasmid (System Biosciences, Inc). Ba/F3-EML4-ALK wild type were generated by transducing Ba/F3 cells with lentivirus containing EML4-ALK wide type. Stable cell lines were selected by puromycin treatment, followed by IL-3 withdrawal. Briefly, 5×10^6 Ba/F3 cells were transduced with lentivirus supernatant in the presence of 8 μg/mL protamine sulfate. The transduced cells were subsequently selected with 1 μg/mL puromycin in the presence of IL3-containing medium RPMI1640, plus 10% FBS. After 10-12 days of selection, the surviving cells were further selected for IL3 independent growth.
(§1) Two thousand cells per well were seeded in 384 well white plate for 24 hrs, and then treated with compounds for 72 hours (37° C., 5% CO2). Cell proliferation was measured using CellTiter-Glo luciferase-based ATP detection assay (Promega) following the manufactures's protocol. IC50 determinations were performed using GraphPad Prism software (GraphPad, Inc., San Diego, Calif.).

KG-1 = format: cell-based, human; conditions: Homo sapiens, KG-1, anti-cell proliferation
Experimental: (§2) Human medulla thyroid carcinoma cell line TT (containing RET […] mutation) and acute myelogenous cell line KG-1 were purchased from ATCC. Human colon cancer cell line KMI2 (containing TPM3-TRKA) was obtained from NCI.
as §1

KM12 cell (TPM3-TRKA) = format: cell-based, human; conditions: Homo sapiens, KM12, anti-cell proliferation
Experimental: as §2, §1

BaF3 KIF5B-RET = target: T2, BaF3 KIF5B-RET (Homo sapiens, UniProt P07949); format: cell-based; conditions: anti-cell proliferation, read-out: BaF3 KIF5B-RET IC50
T2 construct: fused on or other part: P33176 (Kinesin-1 heavy chain)
T2 sequence (P07949 whole entry, change not shown, the tested form may be a part): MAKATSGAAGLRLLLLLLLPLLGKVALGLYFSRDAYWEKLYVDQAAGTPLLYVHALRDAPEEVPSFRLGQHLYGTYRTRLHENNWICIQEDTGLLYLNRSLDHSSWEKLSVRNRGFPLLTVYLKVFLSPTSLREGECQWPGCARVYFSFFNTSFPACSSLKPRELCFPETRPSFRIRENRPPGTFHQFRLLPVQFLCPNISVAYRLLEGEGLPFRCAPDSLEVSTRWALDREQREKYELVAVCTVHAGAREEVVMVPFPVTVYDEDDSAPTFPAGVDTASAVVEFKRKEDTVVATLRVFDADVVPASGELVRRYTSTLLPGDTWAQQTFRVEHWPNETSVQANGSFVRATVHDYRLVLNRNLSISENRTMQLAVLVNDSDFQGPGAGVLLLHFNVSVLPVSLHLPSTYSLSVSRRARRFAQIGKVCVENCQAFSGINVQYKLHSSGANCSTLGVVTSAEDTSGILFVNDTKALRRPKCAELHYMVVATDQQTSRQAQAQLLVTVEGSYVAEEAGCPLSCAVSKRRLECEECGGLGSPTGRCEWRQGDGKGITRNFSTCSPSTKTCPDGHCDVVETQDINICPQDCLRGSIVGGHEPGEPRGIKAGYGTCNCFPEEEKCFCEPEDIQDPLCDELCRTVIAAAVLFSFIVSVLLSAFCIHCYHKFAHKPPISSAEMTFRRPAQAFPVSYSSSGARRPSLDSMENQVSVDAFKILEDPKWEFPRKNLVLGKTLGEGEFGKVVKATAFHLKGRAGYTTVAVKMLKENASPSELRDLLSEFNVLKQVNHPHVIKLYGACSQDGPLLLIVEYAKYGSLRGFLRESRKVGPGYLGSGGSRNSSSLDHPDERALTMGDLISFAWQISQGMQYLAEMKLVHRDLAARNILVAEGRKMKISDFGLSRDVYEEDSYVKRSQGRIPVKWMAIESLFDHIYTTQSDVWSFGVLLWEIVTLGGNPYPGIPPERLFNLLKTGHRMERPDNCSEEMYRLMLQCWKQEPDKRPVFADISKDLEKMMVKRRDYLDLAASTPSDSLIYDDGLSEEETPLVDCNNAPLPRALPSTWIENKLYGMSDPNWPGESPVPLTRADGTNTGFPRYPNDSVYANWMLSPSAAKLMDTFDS
Excerpt: (§3) The KIF5B-RET gene was synthesized at GenScript and cloned into pCDH-CMV-MCS-EF1-Puro plasmid (System Biosciences, Inc). KIF5B-RET point mutation V804M was generated at GenScript by PCR and confirmed by sequencing. Ba/F3-KIF5B-RET wild type and mutant were generated by transducing Ba/F3 cells with lentivirus containing KIF5B-RET wide type or mutant. Stable cell lines were selected by puromycin treatment, followed by IL-3 withdrawal. Briefly, 5×10^6 Ba/F3 cells were transduced with lentivirus supernatant in the presence of 8 μg/mL protamine sulfate. The transduced cells were subsequently selected with 1 µg/mL puromycin in the presence of IL3-containing medium RPMI1640, plus 10% FBS. After 10-12 days of selection, the surviving cells were further selected for IL3 independent growth.
as §1

BaF3 KIF5B-RET_G810R = target: T3, BaF3 KIF5B-RET_G810R (Homo sapiens, UniProt P07949, G810R, cells depend on it); format: cell-based; conditions: anti-cell proliferation, read-out: BaF3 KIF5B-RET_G810R IC50
T3 construct: fused on or other part: P33176 (Kinesin-1 heavy chain)
T3 sequence (P07949 whole entry G810R, the tested form may be a part): as the sequence (P07949 whole entry, change not shown, the tested form may be a part) above, with G810R counted along it
Excerpt: [The source words this procedure for another variant and reports this variant under the same test.] as §3, §1

BaF3 KIF5B-RET_V804M = target: T4, BaF3 KIF5B-RET_V804M (Homo sapiens, UniProt P07949, V804M, cells depend on it); format: cell-based; conditions: anti-cell proliferation, read-out: BaF3 KIF5B-RET_V804M IC50
T4 construct: fused on or other part: P33176 (Kinesin-1 heavy chain)
T4 sequence (P07949 whole entry V804M, the tested form may be a part): as the sequence (P07949 whole entry, change not shown, the tested form may be a part) above, with V804M counted along it
Excerpt: as §3, §1

Row | Structure (SMILES) | GI50 (BaF3 EML4-ALK) [nM] | IC50 (KG-1) [nM] | IC50 (KM12 cell (TPM3-TRKA)) [nM] | GI50 (BaF3 KIF5B-RET) [nM] | GI50 (BaF3 KIF5B-RET_G810R) [nM] | GI50 (BaF3 KIF5B-RET_V804M) [µM]
1 | C[C@H]1CNC(=O)c2cnn3cc4c(nc23)N(Cc2cc(F)cnc2O1)[C@@H]1COC[C@@H]1O4 [Compound 30, (3aR,11S,20aR)-7-fluoro-11-methyl-1,3,3a,12,13,20a-hexahydro-5H-17,19-(metheno)furo[3′,4′:5,6][1,4]oxazino[3,4-i]pyrazolo[4,3-f]pyrido[3,2-l][1,4,8,10]oxatriazacyclotridecin-14(11H)-one] | 2000 | 853 | 13.5 | 162 | 1860 | 0.337
2 | CC1(C)COc2ncc(F)cc2CN2c3nc4c(cnn4cc3O[C@H]3CCC[C@H]32)C(=O)N1 [Compound 21, (3aR,20aS)-7-fluoro-12,12-dimethyl-2,3,3a,12,13,20a-hexahydro-1H,5H-17,19-(metheno)cyclopenta[5,6] [1,4]oxazino[3,4-i]pyrazolo[4,3-f]pyrido [3,2-l][1,4,8,10]oxatriazacyclotridecin-14(11H)-one] | 462 | 86.9 | 13.8 | < 0.2 | 82 | 3.46
3 | C[C@@H]1CNC(=O)c2cnn3cc4c(nc23)N(Cc2cc(F)cnc2O1)[C@H]1CCC[C@H]1O4 [Compound 44, (3aS,11R,20aR)-7-fluoro-11-methyl-2,3 3a,12,13,20a-hexahydro-1H,5H-17,19-(metheno)cyclopenta[5,6][1,4] oxazino[3,4-i]pyrazolo[4,3-f]pyrido[3,2-l][1,4,8,10]oxatriazacyclotridecin-14(11H)-one] | > 10000 | > 10000 | 668 | > 10000 | > 10000 | > 10
4 | O=C1NCC(F)(F)COc2ncc(F)cc2CN2c3nc4c1cnn4cc3O[C@H]1CCC[C@H]12 [Compound 40, (3aR,21aS)-7,12,12-trifluoro-2,3,3a,11,12,13,14,21a-octahydro-1H,5H, 15H-18,20-(metheno)cyclopenta[5,6][1,4] oxazino[4,3-e]pyrazolo[3,4-h]pyrido[2,3-b][1,5,7,11]oxatriazacyclotetradecin-15-one] | 1950 | 19.1 | < 0.2 | < 0.2 | 1.8 | 5
5 | O=C1N[C@H](C(F)F)COc2ncc(F)cc2CN2c3nc4c1cnn4cc3O[C@H]1CCC[C@H]12 [Compound 47, (3aR,12S,20aS)-12-(difluoromethyl)-7-fluoro-2,3,3a,12,13,20a-hexahydro-1H,5H-17,19-(metheno)cyclopenta[5,6][1,4] oxazino[3,4-i]pyrazolo[4,3-f]pyrido[3,2-l][1,4,8,10]oxatriazacyclotridecin-14(11H)-one] | 139 | 3.5 | < 0.2 | < 0.2 | 3.6 | 0.469
6 | O=C1NC[C@@H](F)COc2ncc(F)cc2CN2c3nc4c1cnn4cc3O[C@H]1CCC[C@H]12 [Compound 39, 3aR,12R,21aS)-7,12-difluoro-2,3,3a,11,12,13,21a-octahydro-1H,5H, 15H-18,20-(metheno)cyclopenta[5,6][1,4] oxazino[4,3-e]pyrazolo[3,4-h]pyrido[2,3-b][1,5,7,11]oxatriazacyclotetradecin-15-one] | 152 | 59.2 | 7.4 | 10.2 | 57.3 | 3
7 | O=C1NC2(COc3ncc(F)cc3CN3c4nc5c1cnn5cc4O[C@H]1CCC[C@H]13)CC(F)(F)C2 [Compound 25, (3a′R,20a′S)-3,3,7′-trifluoro-1′H,2′H, 3′H,3a′H,5′H,11′H,13′H,14′H,20a′H-spiro[cyclobutane-1,12′-[10,20]dioxa[4,9,13,16,17,18][hexaaza [17,19](metheno)cyclopenta[5,6][1,4]oxazino[3,4-i]pyrazolo[4,3-f]pyrido [3,2-l][1,4,8,10]oxatriazacyclotridecin]-14′-one] | 3000 | 677 | 277 | 193 | 559 | 3
8 | O=C1NC[C@H](O)COc2ncc(F)cc2CN2c3nc4c1cnn4cc3O[C@H]1CCC[C@H]12 [Compound 32, (3aR,12S,21aS)-7-fluoro-12-hydroxy-2,3,3a,11,12,13,14,21a-octahydro-1H,5H,15H-18,20-(metheno)cyclopenta[5,6][1,4]oxazino[4,3-e]pyrazolo[3,4-h]pyrido[2,3-b][1,5,7,11]oxatriazacyclotetradecin-15-one] | 1060 | 223 | 20.2 | 89 | 501 | 5.72
9 | O=C1NCCCOc2ncc(F)cc2CN2c3nc4c1cnn4cc3O[C@H]1CCC[C@H]12 [Compound 19, (3aR,21aS)-7-fluoro-2,3,3a,11,12,13,14,21a-octahydro-1H,5H,15H-18,20-(metheno)cyclopenta[5,6][1,4]oxazino[4,3-e]pyrazolo[3,4-h]pyrido[2,3-b][1,5,7,11]oxatriazacyclotetradecin-15-one] | 895 | 73.1 | 7.8 | 5.2 | 78 | 3.07
10 | O=C1NC[C@@H](CO)Oc2ncc(F)cc2CN2c3nc4c1cnn4cc3O[C@H]1CCC[C@H]12 [Compound 49, (3aR,11S,20aS)-7-fluoro-11-(hydroxymethyl)-2,3,3a,12,13,20a-hexahydro-1H,5H-17,19-(metheno)cyclopenta[5,6][1,4]oxazino[3,4-i]pyrazolo[4,3-f]pyrido[3,2-l][1,4,8,10]oxatriazacyclotridecin-14(11H)-one] | > 10000 | 5240 | 1460 | 397 | 1640 | 5
11 | O=C1NC2(CCC2)CCOc2ncc(F)cc2CN2c3nc4c1cnn4cc3O[C@H]1CCC[C@H]12 [Compound 45] | 3110 | 1130 | 202 | 526 | 1710 | 5
12 | O=C1NCC2(CC2)COc2ncc(F)cc2CN2c3nc4c1cnn4cc3O[C@H]1CCC[C@H]12 [Compound 20, (3a′R,21a′S)-7′-fluoro-1′H,2′H,3′H,3a′H, 5′H,11′H,13′H,14′H,15′H,21a′H-spiro[cyclopropane-1,12′-[10,21]dioxa[4,9,14,17,18,19][hexaaza [18,20](metheno)cyclopenta[5,6][1,4]oxazino[4,3-e]pyrazolo[3,4-h]pyrido [3,2-b][1,5,7,11]oxatriazacyclotetradecin]-15′-one] | 1400 | 2.4 | 0.5 | 1.1 | 7.8 | 1.86
13 | O=C1NCC2(CCC2)COc2ncc(F)cc2CN2c3nc4c1cnn4cc3O[C@H]1CCC[C@H]12 [Compound 23, (3a′R,21a′S)-7′-fluoro-1′H,2′H,3′H,3a′H, 5′H,11′H,13′H,14′H,15′H,21a′H-spiro[cyclobutane-1,12′-[10,21]dioxa[4,9,14,17,18,19][hexaaza [18,20](metheno)cyclopenta[5,6][1,4]oxazino[4,3-e]pyrazolo[3,4-h]pyrido [2,3-b][1,5,7,11]oxatriazacyclotetradecin]-15′-one] | 1680 | 228 | 52.9 | 98.9 | 422 | 3
14 | C[C@@H]1COc2ncc(F)cc2CN2c3nc4c(cnn4cc3O[C@H]3CCC[C@H]32)C(=O)N1 [Compound 6, (3aR,12R,20aS)-7-fluoro-12-methyl-2,3,3a,12,13,20a-hexahydro-1H,5H-17-19-(metheno)cyclopenta[5,6][1,4] oxazino[3,4-i]pyrazolo[4,3-f]pyrido[3,2-l][1,4,8,10]oxatriazacyclotridecin-14(11H)-one] | 146 | 1 | 0.2 | 0.2 | 3 | 0.573
